Data: PubChem BioAssay AID248 (DTP/NCI, 2004)
Where “and” joins values, the source holds several entries; their conditions need not be identical. Equal values may be shown once. Inconclusive results and toxic doses are left out. No stated cut-off is given here; in the data, active means T/C of 150% or more; inactive means T/C below 125%. Peptide text beside a SMILES is read from it. * marks the point of attachment. Boc = CC(C)(C)OC(=O)*

System: L1210 leukemia ip in BDF1 mice, survival T/C
Test: NCI In Vivo Anticancer Drug Screen. Data for tumor model L1210 Leukemia (intraperitoneal) in B6D2F1 (BDF1) mice
Conditions: endpoint: mean survival time, higher = longer survival
How it was run: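 Ratio derived from survival: compound-dosed mice over vehicle-dosed mice, all bearing a transplantable tumor.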

[1] = dose: 100.0 mg/kg/injection, schedule: Q04DX003 (ip), vehicle: saline with Tween-80
[2] = dose: 200.0 mg/kg/injection, schedule: Q04DX003 (ip), vehicle: saline with Tween-80
[3] = dose: 100.0 mg/kg/injection, schedule: Q04DX003 (ip), vehicle: Klucel (hydroxypropylcellulose) (HPC)
[4] = dose: 200.0 mg/kg/injection, schedule: Q04DX003 (ip), vehicle: Klucel (hydroxypropylcellulose) (HPC)
[5] = dose: 400.0 mg/kg/injection, schedule: Q04DX003 (ip), vehicle: Klucel (hydroxypropylcellulose) (HPC)
[6] = dose: 25.0 mg/kg/injection, schedule: Q01DX009 (ip), vehicle: saline
[7] = dose: 50.0 mg/kg/injection, schedule: Q01DX009 (ip), vehicle: saline
[8] = dose: 100.0 mg/kg/injection, schedule: Q01DX009 (ip), vehicle: saline
[9] = dose: 100.0 mg/kg/injection, schedule: Q01DX001 (ip), vehicle: saline with Tween-80
[10] = dose: 200.0 mg/kg/injection, schedule: Q01DX001 (ip), vehicle: saline with Tween-80
[11] = dose: 400.0 mg/kg/injection, schedule: Q01DX001 (ip), vehicle: saline with Tween-80
[12] = dose: 100.0 mg/kg/injection, schedule: Q04DX002 (ip), vehicle: saline with Tween-80
[13] = dose: 100.0 mg/kg/injection, schedule: Q04DX003 (ip), vehicle: saline
[14] = dose: 200.0 mg/kg/injection, schedule: Q04DX003 (ip), vehicle: saline
[15] = dose: 400.0 mg/kg/injection, schedule: Q04DX003 (ip), vehicle: saline
[16] = dose: 200.0 mg/kg/injection, schedule: Q01DX001 (ip), vehicle: saline

Measured: T/C

COC(=O)CNC(=O)C1CCCN1C(=O)C(Cc1c[nH]c2ccccc12)NC(=O)OC(C)(C)C (stereo not drawn) (Boc-Trp-Pro-Gly-OMe; configuration not given here)
inactive: dose: 100.0 mg/kg/injection, schedule: Q01DX009 (ip), vehicle: saline with Tween-80 88 % of control | dose: 200.0 mg/kg/injection, schedule: Q01DX009 (ip), vehicle: saline with Tween-80 100 % of control | dose: 400.0 mg/kg/injection, schedule: Q01DX009 (ip), vehicle: saline with Tween-80 100 % of control

CSc1cc(C)c(OC(=O)Nc2c(C)cccc2C)c(CO)c1
inactive: [1] 86 % of control | [2] 90 % of control

C=C1C(=O)OC2/C=C(/CO)C3OC3C3OC3(C)CC(OC(=O)/C(C)=C\COC(C)=O)C12 (stereo unspecified)
inactive: dose: 25.0 mg/kg/injection, schedule: Q04DX003 (ip), vehicle: Klucel (hydroxypropylcellulose) (HPC) 98 % of control | dose: 50.0 mg/kg/injection, schedule: Q04DX003 (ip), vehicle: Klucel (hydroxypropylcellulose) (HPC) 104 % of control | [3] 94 % of control and 89 % of control

[N-]=[N+]=Nc1cccc[n+]1[O-]
inactive: [3] 105 % of control | [4] 109 % of control | [5] 105 % of control

CC(=O)N(C(=O)c1ccccc1)c1ccc(NS(=O)(=O)c2ccc(C)cc2)cc1
inactive: dose: 100.0 mg/kg/injection, schedule: Q01DX001 (ip), vehicle: Klucel (hydroxypropylcellulose) (HPC) 91 % of control | [3] 94 % of control | dose: 200.0 mg/kg/injection, schedule: Q01DX001 (ip), vehicle: Klucel (hydroxypropylcellulose) (HPC) 100 % of control | dose: 400.0 mg/kg/injection, schedule: Q01DX001 (ip), vehicle: Klucel (hydroxypropylcellulose) (HPC) 100 % of control | [5] 90 % of control

CNCC(C)CN1CCCCCc2ccccc21 (stereo unspecified)
inactive: dose: 3.12 mg/kg/injection, schedule: Q01DX009 (ip), vehicle: saline 100 % of control | dose: 6.25 mg/kg/injection, schedule: Q01DX009 (ip), vehicle: saline 93 % of control | dose: 12.5 mg/kg/injection, schedule: Q01DX009 (ip), vehicle: saline 100 % of control | [6] 97 % of control | [7] 104 % of control

CC(C#N)(Nc1ccccc1)c1ccc(Br)cc1 (stereo unspecified)
inactive: [3] 95 % of control | [4] 95 % of control | [5] 95 % of control

CC1(C)N=C(N)N=C(N)N1c1ccccc1
inactive: dose: 12.0 mg/kg/injection, schedule: Q01DX009 (ip), vehicle: saline 104 % of control | dose: 12.0 mg/kg/injection, schedule: Q04DX003 (ip), vehicle: saline 97 % of control | [6] 99 % of control | dose: 25.0 mg/kg/injection, schedule: Q04DX003 (ip), vehicle: saline 101 % of control | [7] 98 % of control

CCCC[As](=O)(O)CCCc1ccccc1
inactive: dose: 0.78 mg/kg/injection, schedule: Q01DX009 (ip), vehicle: saline 97 % of control | dose: 1.56 mg/kg/injection, schedule: Q01DX009 (ip), vehicle: saline 100 % of control | dose: 3.13 mg/kg/injection, schedule: Q01DX009 (ip), vehicle: saline 103 % of control

CCCCC(CC)COC(=O)CC(O)C(=O)OCC(CC)CCCC (stereo unspecified)
inactive: dose: 100.0 mg/kg/injection, schedule: Q01DX009 (ip), vehicle: Klucel (hydroxypropylcellulose) (HPC) 103 % of control | dose: 200.0 mg/kg/injection, schedule: Q01DX009 (ip), vehicle: Klucel (hydroxypropylcellulose) (HPC) 100 % of control | dose: 400.0 mg/kg/injection, schedule: Q01DX009 (ip), vehicle: Klucel (hydroxypropylcellulose) (HPC) 103 % of control

NC(=S)NNC=O
inactive: [3] 95 % of control | [4] 92 % of control | [5] 100 % of control

CC(=C/C(C)(C)C)/C(C)=C/C(C)(C)C
inactive: [8] 88 % of control

CC(C)NCC(C#N)C1CCCCC1 (stereo unspecified)
inactive: [9] 97 % of control | [10] 93 % of control | [11] 97 % of control

CCCCOC(=O)c1ccc(OC(=O)Nc2ccc(Cl)cc2)cc1
inactive: dose: 25.0 mg/kg/injection, schedule: Q01DX009 (ip), vehicle: saline with Tween-80 101 % of control and 110 % of control | dose: 50.0 mg/kg/injection, schedule: Q01DX009 (ip), vehicle: saline with Tween-80 101 % of control and 110 % of control | [9] 104 % of control | [12] 93 % of control and 115 % of control | [1] 94 % of control | [10] 95 % of control | dose: 200.0 mg/kg/injection, schedule: Q04DX002 (ip), vehicle: saline with Tween-80 95 % of control and 110 % of control | [2] 94 % of control | [11] 98 % of control | dose: 400.0 mg/kg/injection, schedule: Q04DX002 (ip), vehicle: saline with Tween-80 100 % of control and 106 % of control | dose: 400.0 mg/kg/injection, schedule: Q04DX003 (ip), vehicle: saline with Tween-80 97 % of control

NC(=O)Nc1cc(N)cc(NC(N)=O)c1
inactive: [13] 96 % of control | [14] 107 % of control | [15] 106 % of control

CCOC(=O)C1CC1(C)Br (stereo unspecified)
inactive: dose: 3.13 mg/kg/injection, schedule: Q04DX002 (ip), vehicle: saline with Tween-80 97 % of control | dose: 6.25 mg/kg/injection, schedule: Q04DX002 (ip), vehicle: saline with Tween-80 87 % of control | dose: 25.0 mg/kg/injection, schedule: Q04DX002 (ip), vehicle: saline with Tween-80 87 % of control | [12] 90 % of control

Nc1c([N+](=O)[O-])cc([N+](=O)[O-])c2ccccc12
inactive: dose: 15.0 mg/kg/injection, schedule: Q01DX015 (ip), vehicle: carboxymethylcellulose (CMC) 91 % of control | dose: 30.0 mg/kg/injection, schedule: Q01DX015 (ip), vehicle: carboxymethylcellulose (CMC) 91 % of control | dose: 50.0 mg/kg/injection, schedule: Q01DX001 (ip), vehicle: carboxymethylcellulose (CMC) 104 % of control | dose: 60.0 mg/kg/injection, schedule: Q01DX015 (ip), vehicle: carboxymethylcellulose (CMC) 102 % of control | dose: 100.0 mg/kg/injection, schedule: Q01DX001 (ip), vehicle: carboxymethylcellulose (CMC) 101 % of control | dose: 120.0 mg/kg/injection, schedule: Q01DX015 (ip), vehicle: carboxymethylcellulose (CMC) 98 % of control

Cc1cn(-c2ccccc2)c(C)c(C(=O)O)c1=O
inactive: dose: 100.0 mg/kg/injection, schedule: Q01DX001 (ip), vehicle: other 101 % of control | dose: 200.0 mg/kg/injection, schedule: Q01DX001 (ip), vehicle: other 102 % of control | dose: 400.0 mg/kg/injection, schedule: Q01DX001 (ip), vehicle: other 91 % of control

COc1cc(C)c(C)cc1C(C)C(C)C(=O)O (stereo unspecified)
inactive: [3] 97 % of control | [4] 98 % of control | [5] 98 % of control

N#CCCN(CCC#N)[N+](=O)[O-]
inactive: dose: 87.5 mg/kg/injection, schedule: Q01DX009 (ip), vehicle: Klucel (hydroxypropylcellulose) (HPC) 97 % of control | dose: 100.0 mg/kg/injection, schedule: Q04DX002 (ip), vehicle: Klucel (hydroxypropylcellulose) (HPC) 98 % of control | dose: 100.0 mg/kg/injection, schedule: Q04DX002 (ip), vehicle: saline + alcohol 97 % of control | dose: 175.0 mg/kg/injection, schedule: Q01DX009 (ip), vehicle: Klucel (hydroxypropylcellulose) (HPC) 100 % of control | dose: 200.0 mg/kg/injection, schedule: Q04DX002 (ip), vehicle: Klucel (hydroxypropylcellulose) (HPC) 102 % of control | dose: 200.0 mg/kg/injection, schedule: Q04DX002 (ip), vehicle: saline + alcohol 105 % of control | dose: 400.0 mg/kg/injection, schedule: Q04DX002 (ip), vehicle: Klucel (hydroxypropylcellulose) (HPC) 87 % of control | dose: 400.0 mg/kg/injection, schedule: Q04DX002 (ip), vehicle: saline + alcohol 101 % of control

O=C(c1ccccc1)C(C(c1ccccc1)N1CCOCC1)N1CCOCC1 (stereo unspecified)
inactive: dose: 50.0 mg/kg/injection, schedule: Q01DX001 (ip), vehicle: saline 113 % of control | dose: 100.0 mg/kg/injection, schedule: Q01DX001 (ip), vehicle: saline 102 % of control | [16] 108 % of control | dose: 400.0 mg/kg/injection, schedule: Q01DX001 (ip), vehicle: saline 102 % of control

CC1CC2=C(CCCO2)C(C)C1 (stereo unspecified)
inactive: [16] 95 % of control

Nc1cc(S(N)(=O)=O)ccc1SSc1ccc(S(N)(=O)=O)cc1N
inactive: [8] 105 % of control | [13] 96 % of control | dose: 200.0 mg/kg/injection, schedule: Q01DX009 (ip), vehicle: saline 99 % of control | [14] 94 % of control | dose: 400.0 mg/kg/injection, schedule: Q01DX009 (ip), vehicle: saline 110 % of control | [15] 89 % of control
